US10168342B2, “Lipid probes and uses thereof” (THE SCRIPPS RESEARCH INSTITUTE, priority 2015, dated 2019)
Read-outs that look alike come from different tables or passages of the source.

Tests used:
[1] = target: T1, AEA-DA lipid probe targets in Neuro2a cells (Mus musculus, UniProt P97311)
T1 sequence (P97311 1-821): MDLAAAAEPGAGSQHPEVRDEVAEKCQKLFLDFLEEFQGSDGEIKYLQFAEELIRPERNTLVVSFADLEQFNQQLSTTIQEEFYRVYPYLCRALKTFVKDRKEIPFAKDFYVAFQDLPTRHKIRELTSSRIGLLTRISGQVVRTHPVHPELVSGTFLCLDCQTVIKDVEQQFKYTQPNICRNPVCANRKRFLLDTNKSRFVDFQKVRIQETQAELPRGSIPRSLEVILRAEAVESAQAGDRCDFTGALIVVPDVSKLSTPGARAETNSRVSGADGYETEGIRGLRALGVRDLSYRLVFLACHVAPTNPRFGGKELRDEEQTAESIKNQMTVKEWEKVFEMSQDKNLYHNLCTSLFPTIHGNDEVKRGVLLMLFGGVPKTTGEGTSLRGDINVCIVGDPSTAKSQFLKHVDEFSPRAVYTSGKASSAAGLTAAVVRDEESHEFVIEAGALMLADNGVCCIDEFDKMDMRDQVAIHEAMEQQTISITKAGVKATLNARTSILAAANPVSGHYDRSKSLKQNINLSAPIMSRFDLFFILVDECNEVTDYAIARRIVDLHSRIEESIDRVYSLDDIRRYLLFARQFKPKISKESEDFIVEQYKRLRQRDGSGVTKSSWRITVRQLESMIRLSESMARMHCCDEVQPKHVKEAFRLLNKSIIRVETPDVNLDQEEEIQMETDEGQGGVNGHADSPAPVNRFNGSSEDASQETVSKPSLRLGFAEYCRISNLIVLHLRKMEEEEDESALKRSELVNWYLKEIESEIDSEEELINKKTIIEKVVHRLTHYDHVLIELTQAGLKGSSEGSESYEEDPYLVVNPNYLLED

[2] = target: T2, AEA-DA lipid probe targets in Neuro2a cells (Mus musculus, UniProt O35114)
T2 sequence (O35114 1-478): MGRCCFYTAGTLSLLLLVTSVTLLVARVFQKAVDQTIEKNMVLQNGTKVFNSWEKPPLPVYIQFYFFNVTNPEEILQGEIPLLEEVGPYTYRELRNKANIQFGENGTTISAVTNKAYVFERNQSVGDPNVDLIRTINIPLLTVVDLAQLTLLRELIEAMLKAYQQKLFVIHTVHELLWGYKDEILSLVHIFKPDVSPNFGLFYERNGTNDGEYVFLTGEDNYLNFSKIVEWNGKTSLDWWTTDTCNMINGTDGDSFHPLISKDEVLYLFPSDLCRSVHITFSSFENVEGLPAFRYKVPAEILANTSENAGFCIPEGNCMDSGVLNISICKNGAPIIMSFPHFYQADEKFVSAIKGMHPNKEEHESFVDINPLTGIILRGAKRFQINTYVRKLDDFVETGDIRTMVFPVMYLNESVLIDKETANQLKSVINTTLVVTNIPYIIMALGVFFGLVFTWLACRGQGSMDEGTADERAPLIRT

[3] = target: AEA-DA lipid probe targets in Neuro2a cells (Mus musculus, UniProt Q62351)
AEA-DA lipid probe targets in Neuro2a cells (Mus musculus, UniProt Q62351), sequence (Q62351 whole entry): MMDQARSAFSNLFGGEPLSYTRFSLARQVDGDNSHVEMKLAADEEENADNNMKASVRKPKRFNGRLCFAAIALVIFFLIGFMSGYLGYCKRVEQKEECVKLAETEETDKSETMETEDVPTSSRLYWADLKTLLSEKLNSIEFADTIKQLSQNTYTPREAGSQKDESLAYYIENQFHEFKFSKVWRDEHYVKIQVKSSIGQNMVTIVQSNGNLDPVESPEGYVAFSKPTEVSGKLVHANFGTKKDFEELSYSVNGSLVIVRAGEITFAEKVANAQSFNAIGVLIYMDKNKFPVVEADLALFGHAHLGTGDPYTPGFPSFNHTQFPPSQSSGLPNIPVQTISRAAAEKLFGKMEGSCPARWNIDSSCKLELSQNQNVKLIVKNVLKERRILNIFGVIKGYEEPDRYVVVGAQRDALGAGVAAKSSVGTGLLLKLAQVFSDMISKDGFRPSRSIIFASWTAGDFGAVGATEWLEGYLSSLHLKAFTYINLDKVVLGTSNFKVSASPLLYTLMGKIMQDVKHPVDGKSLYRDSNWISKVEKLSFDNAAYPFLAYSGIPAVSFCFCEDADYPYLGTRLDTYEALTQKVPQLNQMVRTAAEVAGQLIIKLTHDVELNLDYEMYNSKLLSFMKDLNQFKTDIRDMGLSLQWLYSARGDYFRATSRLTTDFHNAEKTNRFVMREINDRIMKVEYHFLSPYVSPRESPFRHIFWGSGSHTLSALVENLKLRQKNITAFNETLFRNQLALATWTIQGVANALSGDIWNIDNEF

[4] = target: AEA-DA lipid probe targets in Neuro2a cells (Mus musculus, UniProt Q9D8N0)
AEA-DA lipid probe targets in Neuro2a cells (Mus musculus, UniProt Q9D8N0), sequence (Q9D8N0 whole entry): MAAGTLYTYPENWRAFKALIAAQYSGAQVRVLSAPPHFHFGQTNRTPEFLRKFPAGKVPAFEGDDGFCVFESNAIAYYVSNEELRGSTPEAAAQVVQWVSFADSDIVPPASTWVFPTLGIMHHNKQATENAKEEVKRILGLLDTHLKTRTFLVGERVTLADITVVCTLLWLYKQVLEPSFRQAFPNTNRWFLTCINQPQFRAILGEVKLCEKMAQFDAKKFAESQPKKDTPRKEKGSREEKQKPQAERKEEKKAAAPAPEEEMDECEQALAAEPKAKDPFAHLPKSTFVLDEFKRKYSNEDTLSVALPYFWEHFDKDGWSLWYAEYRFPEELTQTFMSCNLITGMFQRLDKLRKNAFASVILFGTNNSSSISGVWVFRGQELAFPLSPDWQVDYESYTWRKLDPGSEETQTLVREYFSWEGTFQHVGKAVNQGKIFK

[5] = target: T3, AEA-DA lipid probe targets in Neuro2a cells (Mus musculus, UniProt P22315)
T3 sequence (P22315 54-422): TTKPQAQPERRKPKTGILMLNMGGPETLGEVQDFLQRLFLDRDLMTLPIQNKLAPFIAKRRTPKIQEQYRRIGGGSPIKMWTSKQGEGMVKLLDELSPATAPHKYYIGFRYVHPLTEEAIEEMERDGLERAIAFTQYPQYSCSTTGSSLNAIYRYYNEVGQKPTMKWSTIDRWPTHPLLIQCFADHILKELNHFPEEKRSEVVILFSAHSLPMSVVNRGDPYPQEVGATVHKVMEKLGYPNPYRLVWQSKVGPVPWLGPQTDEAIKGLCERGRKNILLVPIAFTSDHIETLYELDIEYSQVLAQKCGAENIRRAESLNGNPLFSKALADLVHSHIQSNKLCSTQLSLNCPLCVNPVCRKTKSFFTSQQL

[6] = target: T4, AEA-DA lipid probe targets in Neuro2a cells (Mus musculus, UniProt Q9CZS1)
T4 sequence (Q9CZS1 20-519): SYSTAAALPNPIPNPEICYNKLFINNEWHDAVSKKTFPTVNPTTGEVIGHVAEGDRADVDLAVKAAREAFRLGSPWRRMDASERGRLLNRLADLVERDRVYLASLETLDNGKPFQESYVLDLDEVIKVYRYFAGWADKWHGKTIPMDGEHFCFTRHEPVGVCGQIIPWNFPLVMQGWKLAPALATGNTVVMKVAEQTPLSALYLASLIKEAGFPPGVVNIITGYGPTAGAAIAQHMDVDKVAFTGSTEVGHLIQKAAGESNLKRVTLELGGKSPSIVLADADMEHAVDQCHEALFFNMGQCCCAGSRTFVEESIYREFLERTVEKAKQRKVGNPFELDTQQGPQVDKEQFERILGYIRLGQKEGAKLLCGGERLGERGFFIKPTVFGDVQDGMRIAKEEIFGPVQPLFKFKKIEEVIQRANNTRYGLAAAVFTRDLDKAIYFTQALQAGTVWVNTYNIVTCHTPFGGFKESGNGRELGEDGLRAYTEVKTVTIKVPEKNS

[7] = target: AEA-DA lipid probe targets in Neuro2a cells (Mus musculus, UniProt Q60715)
AEA-DA lipid probe targets in Neuro2a cells (Mus musculus, UniProt Q60715), sequence (Q60715 18-534): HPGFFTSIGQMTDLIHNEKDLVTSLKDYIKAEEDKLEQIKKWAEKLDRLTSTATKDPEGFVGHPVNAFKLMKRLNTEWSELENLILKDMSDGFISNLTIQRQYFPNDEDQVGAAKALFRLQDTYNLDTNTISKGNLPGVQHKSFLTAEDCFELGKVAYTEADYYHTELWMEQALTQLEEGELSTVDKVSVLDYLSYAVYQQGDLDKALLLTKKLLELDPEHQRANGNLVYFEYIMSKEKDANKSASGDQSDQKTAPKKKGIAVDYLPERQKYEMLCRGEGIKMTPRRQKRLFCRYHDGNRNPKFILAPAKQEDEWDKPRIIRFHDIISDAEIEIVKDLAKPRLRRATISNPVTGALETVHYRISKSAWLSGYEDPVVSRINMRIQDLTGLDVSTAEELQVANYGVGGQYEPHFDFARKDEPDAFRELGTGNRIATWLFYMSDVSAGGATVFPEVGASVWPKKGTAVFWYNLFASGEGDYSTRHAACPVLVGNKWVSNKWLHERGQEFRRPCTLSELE

[8] = target: T5, AEA-DA lipid probe targets in Neuro2a cells (Mus musculus, UniProt Q60605)
T5 sequence (Q60605 1-151): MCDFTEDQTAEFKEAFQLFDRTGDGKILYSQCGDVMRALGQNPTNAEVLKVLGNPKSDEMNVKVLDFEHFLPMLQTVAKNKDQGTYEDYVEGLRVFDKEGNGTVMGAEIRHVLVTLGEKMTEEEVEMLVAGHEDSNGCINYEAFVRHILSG

[9] = target: AEA-DA lipid probe targets in Neuro2a cells (Mus musculus, UniProt Q60716)
AEA-DA lipid probe targets in Neuro2a cells (Mus musculus, UniProt Q60716), sequence (Q60716 24-537): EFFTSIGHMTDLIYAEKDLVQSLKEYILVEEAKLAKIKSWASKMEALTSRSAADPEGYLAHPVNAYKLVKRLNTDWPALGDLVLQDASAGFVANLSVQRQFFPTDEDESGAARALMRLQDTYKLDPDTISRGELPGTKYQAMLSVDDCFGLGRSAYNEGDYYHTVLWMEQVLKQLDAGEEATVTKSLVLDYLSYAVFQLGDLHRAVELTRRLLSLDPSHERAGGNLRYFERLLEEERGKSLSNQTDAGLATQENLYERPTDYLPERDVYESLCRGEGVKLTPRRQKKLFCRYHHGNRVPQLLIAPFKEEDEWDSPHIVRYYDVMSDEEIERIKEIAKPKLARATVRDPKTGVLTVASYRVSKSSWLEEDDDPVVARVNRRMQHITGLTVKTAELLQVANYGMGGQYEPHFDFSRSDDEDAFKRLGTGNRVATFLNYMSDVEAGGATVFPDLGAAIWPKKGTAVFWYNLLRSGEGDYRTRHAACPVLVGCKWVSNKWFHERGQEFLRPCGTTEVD

[10] = target: AEA-DA lipid probe targets in Neuro2a cells (Mus musculus, UniProt P36536)
AEA-DA lipid probe targets in Neuro2a cells (Mus musculus, UniProt P36536), sequence (P36536 whole entry): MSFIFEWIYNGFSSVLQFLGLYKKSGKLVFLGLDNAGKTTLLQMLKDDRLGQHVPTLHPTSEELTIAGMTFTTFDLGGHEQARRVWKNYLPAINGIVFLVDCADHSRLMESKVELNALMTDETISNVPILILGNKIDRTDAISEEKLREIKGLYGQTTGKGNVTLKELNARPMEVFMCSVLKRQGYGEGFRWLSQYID

## CCCCC/C=C\C/C=C\C/C=C\C/C=C\CCCC(=O)NCCO [AEA, anandamide, reference compound]
[1]; competitor 200 μM
  SILAC ratio Mcm6: 1.3
[2]; competitor 200 μM
  SILAC ratio Scarb2: 1.5
[3]; competitor 200 μM
  SILAC ratio Tfrc: 1.0
[4]; competitor 200 μM
  SILAC ratio Eef1g: 1.4
[5]; competitor 200 μM
  SILAC ratio, Fech: 1.3
[6]; competitor 200 μM
  SILAC ratio, Aldh1b1: 2.7
[7]; competitor 200 μM
  SILAC ratio P4ha1: 1.0
[8]; competitor 200 μM
  SILAC ratio Myl6: 1.0
[9]; competitor 200 μM
  SILAC ratio P4ha2: 1.0

## O=C(/C=C/c1cccnc1)NCCCCC1CCN(C(=O)c2ccccc2)CC1 [FK-866, reference compound]
[10]; competitor 25 μM
  SILAC ratio, Sar1a: 1.0
[1]; competitor 25 μM
  SILAC ratio Mcm6: 1.1
[2]; competitor 25 μM
  SILAC ratio Scarb2: 1.1
[3]; competitor 25 μM
  SILAC ratio Tfrc: 1.1
[4]; competitor 25 μM
  SILAC ratio Eef1g: 1.5
[5]; competitor 25 μM
  SILAC ratio, Fech: 20.0
[6]; competitor 25 μM
  SILAC ratio, Aldh1b1: 1.3
[7]; competitor 25 μM
  SILAC ratio P4ha1: 1.1
[8]; competitor 25 μM
  SILAC ratio Myl6: 1.3
[9]; competitor 25 μM
  SILAC ratio P4ha2: 1.1

## CN1CCN(C(=O)c2c(-c3ccccc3)c3cc([N+](=O)[O-])ccc3n2C)CC1 [KML110, (1-Methyl-5-nitro-3-phenyl-1H-indol-2-yl)(4-methylpiperazin-1-yl)methanone]
[10]; competitor 25 μM
  SILAC ratio, Sar1a: 1.4
[1]; competitor 25 μM
  SILAC ratio Mcm6: 2.0
[2]; competitor 25 μM
  SILAC ratio Scarb2: 1.3
[3]; competitor 25 μM
  SILAC ratio Tfrc: 1.1
[4]; competitor 25 μM
  SILAC ratio Eef1g: 1.4
[5]; competitor 25 μM
  SILAC ratio, Fech: 2.2
[6]; competitor 25 μM
  SILAC ratio, Aldh1b1: 1.7
[8]; competitor 25 μM
  SILAC ratio Myl6: 1.4
[9]; competitor 25 μM
  SILAC ratio P4ha2: 1.3

## CN1CCN(C(=O)c2[nH]c3ccc([N+](=O)[O-])cc3c2-c2ccccc2)CC1 [MJN228, (4-Methylpiperazin-1-yl)(5-nitro-3-phenyl-1H-indol-2-yl)methanone]
[10]; competitor 10 μM
  SILAC ratio, Sar1a: 1.3
[10]; competitor 25 μM
  SILAC ratio, Sar1a: 1.7
[10]; competitor 50 μM
  SILAC ratio, Sar1a: 1.7
[10]; competitor 100 μM
  SILAC ratio, Sar1a: 2.2
[1]; competitor 10 μM
  SILAC ratio Mcm6: 1.2
[1]; competitor 25 μM
  SILAC ratio Mcm6: 1.4
[1]; competitor 50 μM
  SILAC ratio Mcm6: 1.0
[1]; competitor 100 μM
  SILAC ratio Mcm6: 1.6
[2]; competitor 10 μM
  SILAC ratio Scarb2: 1.3
[2]; competitor 25 μM
  SILAC ratio Scarb2: 1.5
[2]; competitor 50 μM
  SILAC ratio Scarb2: 1.7
[2]; competitor 100 μM
  SILAC ratio Scarb2: 1.9
[3]; competitor 10 μM
  SILAC ratio Tfrc: 1.1
[3]; competitor 25 μM
  SILAC ratio Tfrc: 1.0
[3]; competitor 50 μM
  SILAC ratio Tfrc: 1.0
[3]; competitor 100 μM
  SILAC ratio Tfrc: 1.0
[4]; competitor 10 μM
  SILAC ratio Eef1g: 1.1
[4]; competitor 25 μM
  SILAC ratio Eef1g: 1.1
[4]; competitor 50 μM
  SILAC ratio Eef1g: 1.0
[4]; competitor 100 μM
  SILAC ratio Eef1g: 1.3
[5]; competitor 10 μM
  SILAC ratio, Fech: 1.0
[5]; competitor 25 μM
  SILAC ratio, Fech: 2.4
[5]; competitor 50 μM
  SILAC ratio, Fech: 3.0
[5]; competitor 100 μM
  SILAC ratio, Fech: 2.9
[6]; competitor 10 μM
  SILAC ratio, Aldh1b1: 1.2
[6]; competitor 25 μM
  SILAC ratio, Aldh1b1: 1.6
[6]; competitor 50 μM
  SILAC ratio, Aldh1b1: 2.0
[6]; competitor 100 μM
  SILAC ratio, Aldh1b1: 2.6
[7]; competitor 10 μM
  SILAC ratio P4ha1: 1.3
[8]; competitor 10 μM
  SILAC ratio Myl6: 1.1
[8]; competitor 25 μM
  SILAC ratio Myl6: 1.0
[8]; competitor 50 μM
  SILAC ratio Myl6: 1.3
[9]; competitor 10 μM
  SILAC ratio P4ha2: 1.2
[9]; competitor 25 μM
  SILAC ratio P4ha2: 1.3
[9]; competitor 50 μM
  SILAC ratio P4ha2: 1.0
[9]; competitor 100 μM
  SILAC ratio P4ha2: 1.0

## C=CCN(C)CCCCCCOc1ccc(C(=O)c2ccc(Br)cc2)c(F)c1 [Ro 48-8071, reference compound]
[10]; competitor 25 μM
  SILAC ratio, Sar1a: 1.1
[1]; competitor 25 μM
  SILAC ratio Mcm6: 0.8
[2]; competitor 25 μM
  SILAC ratio Scarb2: 1.1
[3]; competitor 25 μM
  SILAC ratio Tfrc: 0.8
[4]; competitor 25 μM
  SILAC ratio Eef1g: 0.9
[5]; competitor 25 μM
  SILAC ratio, Fech: 1.4
[6]; competitor 25 μM
  SILAC ratio, Aldh1b1: 1.6
[7]; competitor 25 μM
  SILAC ratio P4ha1: 1.1
[8]; competitor 25 μM
  SILAC ratio Myl6: 0.7
[9]; competitor 25 μM
  SILAC ratio P4ha2: 1.0
